From US20210349108A1, “IMMUNOASSAY FOR MEASURING C-PEPTIDE” (Roche Diabetes Care GmbH, priority 2018, published 2021)
Blank lines part the entries; values can stand above or below the substance they belong to.

Key:
[1] = tested on: anti-C-peptide antibody PEP001; experiment: QCM displacement immunoassay, ligand immobilized on Au-surface, antibody PEP001; type: binding; conditions: for QCM frequency change on addition of sample containing WT-C-peptide (displacement of the ligand, release of antibody-C-peptide-complex): streptavidin/ligand/PEP001 assembly on Au-surface
Excerpt: An Au-substrate is covered with a self-assembled monolayer (SAM). This self-assembled monolayer protects the surface from unspecific adsorption of peptides or proteins. Part of the SAM molecules is coupled with biotin, which is exposed on the surface. To this surface the biotin binding protein streptavidin is applied and bound by the biotin moieties. Since streptavidin has a plurality of binding sides for biotin, a ligand labeled with biotin can be bound to the streptavidin. Finally, anti-C-peptide antibody PEP001 is added, which binds to the ligand forming an immobilized antibody-ligand-complex, which is schematically depicted in FIG. 2. The stepwise build-up of an immobilized antibody-ligand-complex on the Au-surface can be monitored using a Quartz Crystal Microbalance (QCM). […] Referring to FIG. 3, attachment of streptavidin and Mut6-C-peptide results in a frequency shift of about −20 Hz. The binding of antibody PEP001 to the ligand Mut6-C-peptide results in a frequency shift of about >−50 Hz.
Addition of a sample containing C-peptide results in displacement of the ligand by wild type C-peptide and release of a C-peptide-antibody-complex as schematically shown in FIG. 2.
A quantitative determination of the amount of C-peptide within a sample can be achieved by calibrating the assay using solutions having known C-peptide concentrations. The amount of frequency shift observed for a sample indicates the quantitative amount of C-peptide being present within that sample.
An immunoassay as described in Example 1 was provided except that Mut3-C-peptide, Mut2-C-peptide or Mut5-C-peptide were used as ligand.
As described in Example 1, a SAM/biotin/streptavidin/biotin-ligand/antibody-complex is immobilized on an Au-surface. In this Example the ligand was C-peptide mutant B10-25_Mut3, the antibody was PEP001.
Immobilization of a ligand to a surface can also be performed using a linker (instead of a self-assembling monolayer). A suitable linker is for example a cysteine linker. In this configuration immobilization of an antibody via an antibody-ligand-complex to the surface can be detected by measuring impedance. A ligand having the sequence N-[…]-C(SEQ ID NO:7) was directly immobilized on an Au-surface. Additionally, 6-ferrocenyl-1-hexanethiol was bound to the Au surface for enhanced impedance measurement. Unspecific protein binding to the surface was avoided by incubation with a polyethylene glycol (ML-PEG) and bovine serum albumin (BSA).

[2] = tested on: anti-C-peptide antibody CPT-3-F11; experiment: QCM displacement immunoassay, ligand immobilized on Au-surface, antibody CPT-3-F11; type: binding

frequency shift on binding of antibody PEP001 to the ligand ([1]; QCM, biotin-labeled ligand on SAM/biotin/streptavidin Au-surface, negative shift = mass increase): > −50 Hz | QCM frequency change on addition of sample containing WT-C-peptide (displacement of the ligand, release of antibody-C-peptide-complex) ([1]; QCM): observable positive frequency shift
Substance: N-VELGGGPGAGSLAPLA-C (variant C-peptide Mut6) [Mut6-C-peptide, C-peptide variant AA10-25; Q(22)to A]

QCM frequency change on addition of sample containing WT-C-peptide (displacement of the ligand, release of antibody-C-peptide-complex) ([1]; QCM): considerable frequency increase | QCM frequency change on adding WT-C-peptide (release of antibody-WT-C-peptide-complex) ([1]; continuous assay, 500 ng/ml WT-C-peptide, antibody PEP001): positive frequency shift
Substance: N-VELGGGPGAGSIQPLA-C (variant C-peptide Mut3) [Mut3-C-peptide, C-peptide variant AA10-25; L(21)to I]

effect of addition of WT-C-peptide on bound antibody ([1]; ligand directly immobilized on Au-surface via cysteine linker, QCM): release of the bound antibody
Substance: N-CGSGSGSGS-VELGGGPGAGSLAPLA-C (CGSGSGSGSVELGGGPGAGSLAPLA; variant C-peptide Mut6-Cys) [SEQ ID NO:7, AA10-25; Q(22) to A and including a cysteine linker]
QCM frequency change on addition of PEP001 antibody ([1]; ligand directly immobilized on Au-surface via cysteine linker): considerable negative shift of the frequency

QCM frequency change on addition of sample containing WT-C-peptide (displacement of the ligand) ([2]; antibody CPT-3-F11): considerable frequency increase | frequency shift on addition of anti-C-peptide antibody CPT-3-F11 ([2]; streptavidin/ligand assembly on Au-surface): ~−30 Hz
Substance: N-GQVECGGGPG-C (variant C-peptide Mut18) [Mut18-C-peptide, C-peptide variant AA8-17; L(12)to C]
